Source: patent US10183022B2, “Pharmaceutical composition for treating ulcerative colitis” (EA Pharma Co., Ltd., priority 2014, dated 2019)
“And” between values parts separate entries of the source, which are not always exact repeats. Equal entries are not always repeated.

Legend:
[1] = tested on: ulcerative colitis patients in an active stage; assay: Clinical study, 960 mg orally 3 times a day for 8 weeks: Mayo score, partial Mayo score, response rate, remission rate; type: in vivo, human; parameters: key to Mayo score, Mean / Mayo score, Minimum / Mayo score, Maximum / Mayo score, Upper quartile / Mayo score, Median / Mayo score, Lower quartile: Mayo score = total of 4 subscores (stool, bloody stool, mucosa, global); key to Mayo score, difference in mean between Example 1 and Comparative Example 1: Mayo score points (total of 4 subscores)
Procedure: A tablet comprising 120 mg of the compound of the formula (1) was coated with a film. Thus, a film-coated tablet was prepared (compound of Example 1).
(§1) The compound of Example 1 or the compound of Comparative Example 1 was orally administered after meals 3 times a day. The number of the given tablets was 8 per administration (i.e., the amount of the compound (1) of Example 1 administered was 960 mg per administration). The administration period was 8 weeks. The compounds were administered until the timing after the breakfast on the day before the assessment day at Week 8.
As the subjects, 102 cases (Comparative Example 1: 51 cases, Example 1: 51 cases) were analyzed for assessment items to be described later.
The investigators or sub-investigators assessed subscores (“stool frequency,” “bloody stool,” “mucosal finding,” and “physician's global assessment”) of the Mayo score according to (1) to (4) below. A Mayo score was a total value of four subscore items of “stool frequency,” “bloody stool,” “mucosal finding,” and “physician's global assessment.” Meanwhile, a partial Mayo score was a total value of three subscore items of the Mayo score excluding “mucosal finding.” Note that, for the Mayo score and the partial Mayo score at Week 0, scores obtained at the time of the eligibility determination were used.
A proportion of subjects satisfying the following conditions (a) and (b) (response rate): • (a) the Mayo score was reduced by 30% or more and by 3 points or more in comparison with that at Week 0; and • (b) the subscore for bloody stool was reduced by 1 point or more in comparison with that at Week 0 or was 1 point or less.
Regarding the response rate (proportion of response cases) (Week 8), Example 1 was compared with Comparative Example 1 by setting a logistic regression model using the following adjusting factors as covariates to conduct a superiority test.
• 1. either subjects on whom a 5-ASA preparation (including a SASP preparation) or a corticosteroid preparation has an insufficient effect or who are intolerant to a 5-ASA preparation (including a SASP preparation) or a corticosteroid preparation; and • 2. the Mayo scores (6 points or more but 7 points or less, 8 points or more but 10 points or less) on the eligibility verification day. (1) Main Analysis
Using the response rate at Week 8 as a primary endpoint, a main effect model was set as the main analysis.
A remission rate is a proportion of subjects each having a Mayo score of 2 points or less with the individual subscores of 1 point or less.

[2] = tested on: ulcerative colitis patients in an active stage; assay: Clinical study, 960 mg orally 3 times a day for 8 weeks: Riley score (histopathological assessment of large intestinal mucosal biopsy); type: in vivo, human
Procedure: as §1
At the time of the endoscopic examination on the large intestine for the mucosal finding assessment, large intestinal mucosal tissues were sampled (biopsy). The biopsy for the histopathological assessment at Week 0 was conducted during the endoscopic examination on the large intestine for the eligibility determination. […] The sampled tissues were fixed with formalin to prepare histopathological specimens.
The histopathological assessment was scored by a histopathological assessment central adjudication committee according to the following criteria. A Riley score is a total score of the following items.

COC(=O)[C@H](Cc1ccc(-n2c(=O)c3cc(N(C)C)ccc3n(C)c2=O)cc1)NC(=O)c1c(Cl)cccc1Cl [Example 1, methyl(2S)-2-(2,6-dichlorobenzamide)-3-{4-[6-(dimethylamino)-1-methyl-2,4-dioxo-1,4-dihydroquinazolin-3(2H)-yl]phenyl}propanoate]
Response rate in comparison with Comparative Example (placebo) ([1]; 960 mg orally 3 times a day for 8 weeks): significantly improved | Response rate ([1]; 3 months or more but less than 6 months after remission induction therapy started (6/10 cases)): 60.0% | Response rate ([1]; 6 months or more after remission induction therapy started (5/11 cases)): 45.5% | Response rate ([1]; Mayo score 6 points or more but 7 points or less (15/20 cases)): 75.0% | Response rate ([1]; Mayo score 8 points or more but 10 points or less (17/31 cases)): 54.8% | Mayo score, Lower quartile ([1]; Week 0): 7.0 | Mayo score, Maximum ([1]; Week 0): 10 | Mayo score, Mean ([1]; Week 0): 7.8±1.2 and 7.8 | Mayo score, Median ([1]; Week 0): 8.0 | Mayo score, Minimum ([1]; Week 0): 6 | Mayo score, Upper quartile ([1]; Week 0): 9.0 | Partial Mayo score, Lower quartile ([1]; Week 0): 5.0 | Partial Mayo score, Maximum ([1]; Week 0): 8 | Partial Mayo score, Mean ([1]; Week 0): 5.7±1.1 and 5.7 | Partial Mayo score, Median ([1]; Week 0): 6.0 | Partial Mayo score, Minimum ([1]; Week 0): 4 | Partial Mayo score, Upper quartile ([1]; Week 0): 6.0 | Partial Mayo score, Lower quartile ([1]; Week 2): 3.0 | Partial Mayo score, Maximum ([1]; Week 2): 8 | Partial Mayo score, Mean ([1]; Week 2): 4.4±1.7 and 4.4 | Partial Mayo score, Median ([1]; Week 2): 5.0 | Partial Mayo score, Minimum ([1]; Week 2): 0 | Partial Mayo score, Upper quartile ([1]; Week 2): 6.0 | Partial Mayo score, difference in mean between Example 1 and Comparative Example 1 ([1]; Week 2): −0.55 | Partial Mayo score, Lower quartile ([1]; Week 4): 2.0 | Partial Mayo score, Maximum ([1]; Week 4): 8 | Partial Mayo score, Mean ([1]; Week 4): 3.5±2.0 and 3.5 | Partial Mayo score, Median ([1]; Week 4): 3.0 | Partial Mayo score, Minimum ([1]; Week 4): 0 | Partial Mayo score, Upper quartile ([1]; Week 4): 5.0 | Partial Mayo score, difference in mean between Example 1 and Comparative Example 1 ([1]; Week 4): −1.16 | Difference in remission rates, Example 1 vs Comparative Example 1 (placebo) ([1]; Week 8): 19.6% | Difference in response rates, Example 1 vs Comparative Example 1 (placebo) ([1]; Week 8): 37.3% | Mayo score, Lower quartile ([1]; Week 8): 2.0 | Mayo score, Maximum ([1]; Week 8): 9 | Mayo score, Mean ([1]; Week 8): 4.0±2.4 and 4.0 | Mayo score, Median ([1]; Week 8): 4.0 | Mayo score, Minimum ([1]; Week 8): 0 | Mayo score, Upper quartile ([1]; Week 8): 5.0 | Mayo score, difference in mean between Example 1 and Comparative Example 1 ([1]; Week 8): −2.14 | Partial Mayo score, Lower quartile ([1]; Week 8): 2.0 | Partial Mayo score, Maximum ([1]; Week 8): 8 | Partial Mayo score, Mean ([1]; Week 8): 3.1±2.1 and 3.1 | Partial Mayo score, Median ([1]; Week 8): 3.0 | Partial Mayo score, Minimum ([1]; Week 8): 0 | Partial Mayo score, Upper quartile ([1]; Week 8): 4.0 | Partial Mayo score, difference in mean between Example 1 and Comparative Example 1 ([1]; Week 8): −1.63 | Remission cases ([1]; Week 8, 51 cases analyzed): 12 | Response cases ([1]; Week 8, 51 cases analyzed): 32 | Remission rate ([1]; Week 8, all subjects): 23.5% | Response rate ([1]; Week 8, all subjects): 62.7% | Estimate of odds ratio of Example 1 to Comparative Example 1 (placebo group), response rate ([1]; Week 8, logistic regression model): 5.35 | Remission rate ([1]; body weight 50 kg or more and disease period less than 5 years (7/22 cases)): 31.8% | Response rate ([1]; body weight 50 kg or more and disease period less than 5 years (16/22 cases)): 72.7% | Response rate ([1]; body weight 50 kg or more but less than 60 kg (9/13 cases)): 69.2% | Response rate ([1]; body weight less than 50 kg (5/9 cases)): 55.6% | Response rate ([1]; disease for 1 year or more but less than 5 years (13/21 cases)): 61.9% | Response rate ([1]; disease for 5 years or more (13/24 cases)): 54.2% | Response rate ([1]; disease for less than 1 year (6/6 cases)): 100.0% | Response rate ([1]; disease occurring for the first time (3/5 cases)): 60.0% | Response rate ([1]; disease relapsing (29/46 cases)): 63.0% | Response rate ([1]; females (13/20 cases)): 65.0% | Response rate ([1]; left-sided colitis subjects (19/29 cases)): 65.5% | Response rate ([1]; less than 1 month after remission induction therapy started (8/13 cases)): 61.5% | Response rate ([1]; males (19/31 cases)): 61.3% | Response rate ([1]; most active site at S or Rs and disease period less than 5 years (9/10 cases)): 90.0% | Response rate ([1]; most active site of mucosal inflammation at Ra or Rb (15/28 cases)): 53.6% | Response rate ([1]; most active site of mucosal inflammation at S or Rs (17/23 cases)): 73.9% | Response rate ([1]; not receiving enema agent or suppository therapy in the active stage this time (21/34 cases)): 61.8% | Response rate ([1]; pancolitis subjects (13/22 cases)): 59.1% | Response rate ([1]; received enema agent or suppository therapy but terminated due to insufficient effect (11/17 cases)): 64.7% | Response rate ([1]; relapsing subjects, disease period less than 5 years (16/22 cases)): 72.7% | Response rate ([1]; relapsing subjects, stool frequency 6 times or less per day (25/32 cases)): 78.1% | Response rate ([1]; stool frequency 6 times or less per day and disease period less than 5 years (16/20 cases)): 80.0% | Response rate ([1]; stool frequency 6 times or less per day before administration (28/37 cases)): 75.7% | Response rate ([1]; stool frequency 7 times or more per day before administration (4/14 cases)): 28.6% | Response rate ([1]; subjects intolerant to a 5-ASA preparation (2/2 cases)): 100.0% | Response rate ([1]; subjects intolerant to a corticosteroid preparation (0/1 case)): 0.0% | Response rate ([1]; subjects on whom a 5-ASA preparation had an insufficient effect (28/46 cases)): 60.9% | Response rate ([1]; subjects on whom a corticosteroid preparation had an insufficient effect (2/2 cases)): 100.0% | Riley score, Lower quartile ([2]; Week 0): 9.0 | Riley score, Maximum ([2]; Week 0): 17 | Riley score, Mean ([2]; Week 0): 11.8±2.8 and 11.8 | Riley score, Median ([2]; Week 0): 12.0 | Riley score, Minimum ([2]; Week 0): 6 | Riley score, Upper quartile ([2]; Week 0): 14.0 | Riley score, Lower quartile ([2]; Week 8): 6.0 | Riley score, Maximum ([2]; Week 8): 16 | Riley score, Mean ([2]; Week 8): 8.6±3.4 and 8.6 | Riley score, Median ([2]; Week 8): 9.0 | Riley score, Minimum ([2]; Week 8): 3 | Riley score, Upper quartile ([2]; Week 8): 11.0 | Riley score, difference in mean between Example 1 and Comparative Example 1 ([2]; Week 8): −1.96
